Counter-ions that a name gives are not always drawn. Like-named read-outs stand apart in the source and are kept apart here. Blank lines part the entries; values can stand above or below the molecule they belong to.
How the values were obtained:
[1] = system: C6 cells; experiment: Giemsa staining, morphological changes, C6; type: cell-based; settings: 24 h
Experimental: (§1) A549, B16-F10 and C6 cells were seeded on coverslips in 24-well plates at a density of 2 × 10^4 cells/well. After 24 h, cells were treated with the compound 1 derivative using 1.1, 2.2 and 4.4 μM for A549 and C6, and 0.75, 1.5 and 3 µM for B16-F10 for 24 h. After treatment, cells were washed twice with phosphate-buffered saline (PBS) and fixed with methyl alcohol for 3 min. Then cells were stained with Giemsa for 1 min. The slides were evaluated under an optical microscope (Olympus) and the images were captured at 400 × magnification.

[2] = system: lung adenocarcinoma (A549) cells; experiment: Sulforhodamine B (SRB) cell growth inhibition assay, A549; type: cell-based; settings: for IC50: A549, SRB, 72 h, value (95% confidence interval), read-out: IC50 (maximum 50% inhibitory concentration of cell growth)
Experimental: (§2) The cell lines of lung adenocarcinoma (A549), melanoma (B16-F10) and glioma (C6) were purchased from the Federal University of Rio de Janeiro. Cells were maintained in cell culture flasks in Dulbeccos's Modified Eagle Medium (DMEM) supplemented with 10% Fetal Bovine Serum (FBS) and 1% antibiotic (10,000 U/mL penicillin; […] streptomycin) and incubated at 37 °C in an atmosphere of 5% CO2. After reaching the necessary confluence for carrying out the experiments, the medium was removed, and the cells detached from the bottle using a 0.25% Trypsin–EDTA solution for a period of 1 to 15 min. After this step, the Trypsin–EDTA solution was inactivated with culture medium and the cells were centrifuged, with rotation of 153 G for 10 min at 4 °C. The pellet formed was resuspended in culture medium and the cells were counted in a Neubauer chamber to carry out the experiments.
(§3) For this experiment, A549, B16-F10 and C6 cells were seeded in 96-well plates at a density of 1 × 10^4 cells/well. After an incubation period of 24 h in a humidified incubator at 37 °C with 5% CO2 atmosphere for adhesion, the cells were treated with lawsone and lawsone derivatives (compounds 1, 2 and 3) for 72 h with concentrations from 25 µM to 0.8 µM. Cells were fixed with 100 μL of 30% trichloroacetic acid for 1 h in a refrigerator at 4 °C. Then, the plate was washed 4 times with water and set to dry. After the drying period, 100 μL of 0.057% Sulforhodamine B (SRB) solution (w/v) dissolved in 1% acetic acid was added for 30 min at room temperature. Then the plate was washed 4 times with 1% acetic acid to remove excess dye. After drying, 200 μL of TRIS 10 mM pH 10.5 was added to dilute the SRB for 30 min. The reading was made in a spectrophotometer (Biotek—H1 Synergy) with a wavelength of 510 nm.
(§4) Based on the inhibitory degree of the derivatives, the IC50 of the compounds were calculated. The IC50 is the concentration capable of inhibiting 50% of cell growth. The compound that presented the lowest IC50 was compound 1, being selected for evaluation in the following experiments. For this, IC50 values were used as a basis to define concentrations of half of the IC50, the IC50 value and twice the IC50.

[3] = system: A549 cells; experiment: Wound-healing assay (cell migration); type: cell-based; settings: for wound closure: A549, 4.4 µM
Experimental: A549 cells were seeded in a 12-well plate at a density of 4 × 10^5 cells/well and incubated in an incubator with 5% CO2 atmosphere at 37 °C for 24 h. After the incubation period, a straight-line wound was made with the aid of a p200 tip, the supernatant was discarded, and the wells were washed twice with 1 × PBS to remove loose cells. Cells were treated with compound 1 at concentrations of 1.1, 2.2 and 4.4 µM. 0.02% Dimethyl sulfoxide and 0.2 μM Doxorubicin were used as a negative control and positive control, respectively. Images of wound closure were acquired at 0, 24 and 48 h of treatment with an Olympus microscope. The images were analyzed using the ImageJ software version 1.46.

[4] = system: A549 cells; experiment: Giemsa staining, morphological changes, A549; type: cell-based; settings: A549, 2.2 and 4.4 μM, 24 h
Experimental: as §1

[5] = system: B16-F10 cells; experiment: Giemsa staining, morphological changes, B16-F10; type: cell-based; settings: 24 h
Experimental: as §1

[6] = system: glioma (C6) cells; experiment: Sulforhodamine B (SRB) cell growth inhibition assay, C6; type: cell-based; settings: for IC50: C6, SRB, 72 h, value (95% confidence interval), read-out: IC50 (maximum 50% inhibitory concentration of cell growth)
Experimental: as §2, §3, §4

[7] = system: A549 cells; experiment: Annexin V-FITC/PI assay (flow cytometry); type: cell-based; settings: 24 h
Experimental: A549 cells were seeded in 12-well plates in DMEM medium supplemented with FBS and 1% antibiotic (10,000 U/ml penicillin; […] streptomycin) with a density equal to 2 × 10^5 cells/well and incubated for 24 h. Then, the cells were treated with the compound 1 at concentrations of 1.1, 2.2 and 4.4 µM, for 24 h. Dimethyl sulfoxide 0.02% was used as negative control and 0.2 μM Doxorubicin were used as positive control. After treatment, cells were detached with Accutase solution, transferred to tubes, and washed with PBS. After washing the cells were stained with Annexin V-FITC/PI according to the manufacturer. Samples were analyzed by flow cytometry (Attune NxT Acoustic Focusing Cytometer, Thermo Fisher Scientific). Cells without labeling were considered viable, cells positive only for Annexin V/FITC were considered cells in apoptosis, cells with double labeling for Annexin V/FITC and propidium iodide were considered cells in late apoptosis and cells positive only for iodide propidium were considered cells in necrosis.

[8] = Hemolytic assay; type: cell-based, human; settings: human erythrocytes (2% suspension); human erythrocytes, 110 µM, 1 h; read-out: hemolysis percentage
Experimental: (§5) The hemolytic activity of the compound 1 was tested using human erythrocytes from healthy volunteers. […] Triton X 100 (0.1%) and Dimethyl sulfoxide (0.1%) were used as positive and negative hemolysis controls, respectively. Erythrocytes were kept under agitation at a temperature of 37 °C for 1 h. After this time, the plate was centrifuged at 405 × g for 5 min and 0.15 mL of the transferred supernatant was read in a spectrophotometer (Biotek—H1 Synergy) with an absorbance of 540 nm.

[9] = system: human erythrocytes; experiment: Hemolytic assay; type: cell-based
Experimental: as §5

[10] = system: A549 cells; experiment: Clonogenic assay; type: cell-based; settings: Homo sapiens, 72 h treatment, read-out: inhibition of colony formation
Experimental: A549 cells were seeded in a 6-well plate at a density of 150 cells/well and incubated in an incubator with 5% CO2 atmosphere at 37 °C. After 24 h, cells were treated with the compound 1 at concentrations of 1.1, 2.2 and 4.4 µM for 72 h. Dimethyl sulfoxide 0.02% and Doxorubicin 0.2 μM were used as negative control and positive control respectively. The treatment was removed and replaced with a supplemented DMEM medium. The cells were incubated in an atmosphere of 5% CO2 at 37 °C. After 6 days, cells were fixed with methanol + acetic acid (3:1) for 5 min and stained with 0.5% crystal violet in water for 30 min. The plates were photographed, and the images were analyzed using ImageJ 1.46 software.

[11] = system: melanoma (B16-F10) cells; experiment: Sulforhodamine B (SRB) cell growth inhibition assay, B16-F10; type: cell-based; settings: for IC50: B16-F10, SRB, 72 h, value (95% confidence interval), read-out: IC50 (maximum 50% inhibitory concentration of cell growth)
Experimental: as §2, §3, §4

Structure (SMILES): C#CCOC1=CC(=O)c2ccccc2C1=O [Compound 1, O-propargyllawsone]
morphological changes (Giemsa) ([1]; C6, 1.1 µM): reduced cytoplasmic volume and the appearance of apoptotic cells
morphological changes (Giemsa) ([1]; C6, 2.2 and 4.4 μM): reduction in cytoplasm and apoptotic cells
growth inhibition category ([2]; A549, 72 h, concentrations from 25 to 6.3 µM): high (high inhibition when above 75%)
IC50 [2]: 2.2 µM
IC50 ([2]; Homo sapiens, A549, 72 h): < 2.5 µM
inhibitory potential relative to lawsone ([2]; compared with lawsone IC50, cell line not specified): at least 10 times
effect on cell migration ([3]; A549, 1.1 µM, 24 or 48 h): no significant reduction of migration
reduction of wound closure ([3]; A549, 2.2 µM, 48 h): 33%
wound closure ([3]; 24 h): 18%
wound closure ([3]; 48 h): 56%
morphological changes (Giemsa) [4]: reduction in cytoplasm and apoptotic cells
morphological changes (Giemsa) ([5]; B16-F10, 0.75 µM): reduced cytoplasmic volume and the appearance of apoptotic cells
morphological changes (Giemsa) ([5]; B16-F10, 1.5 and 3 µM): reduction in cytoplasm and apoptotic cells
growth inhibition category ([6]; C6, 72 h, concentrations from 25 to 6.3 µM): high (high inhibition when above 75%)
IC50 [6]: 2.2 µM
IC50 ([6]; Rattus norvegicus, C6, 72 h): < 2.2 µM
changes in the percentage of living, apoptotic or necrotic cells ([7]; A549, 1.1 µM and 2.2 µM): not able to induce significant changes
cells undergoing apoptosis ([7]; A549, 4.4 µM): 47.8%
cells undergoing necrosis ([7]; A549, 4.4 µM): 39.7%
percentage of living cells ([7]; A549, 4.4 µM): 12.4%
hemolysis at 1 h, 110 µM [8]: < 0.5%
toxicity to erythrocytes ([9]; highest concentration tested of 110 µM): not toxic to erythrocytes
hemolytic effect ([9]; human erythrocytes, 13.75, 27.5 and 55 µM, 1 h): no hemolytic effect
inhibition at 1.1 µM ([10]; A549, 1.1 µM, compared to the negative control): 31.1%
inhibition at 2.2 µM ([10]; A549, 2.2 µM, compared to the negative control): 82.1%
inhibition at 4.4 µM ([10]; A549, 4.4 µM, compared to the negative control): 98.1%
growth inhibition category ([11]; B16-F10, 72 h, concentrations from 25 to 6.3 µM): high (high inhibition when above 75%)
IC50 [11]: 1.5 µM
IC50 ([11]; Mus musculus, B16-F10, 72 h): < 2.2 µM

Structure (SMILES): O=C1C=C(OCc2cn(-c3ccccc3)nn2)C(=O)c2ccccc21 [Compound 2]
growth inhibition category ([2]; A549, 72 h, concentrations 12.5 to 0.8 µM): low (low when below 50%)
IC50 [2]: 14.9 µM
IC50 ([2]; Homo sapiens, A549, 72 h): > 14 µM
inhibition at 25 µM ([2]; Homo sapiens, A549, 72 h, 25 µM, read-out: growth inhibition category): 50 to 75%
growth inhibition category ([6]; C6, 72 h, concentrations 12.5 to 0.8 µM): low (low when below 50%)
IC50 ([6]; listed as compound 2): > 14 µM
IC50 [6]: 43.4 µM
growth inhibition category ([11]; B16-F10, 72 h, concentrations 12.5 to 0.8 µM): low (low when below 50%)
IC50 [11]: 14.2 µM
IC50 ([11]; Mus musculus, B16-F10, 72 h): > 14 µM
inhibition at 25 µM ([11]; Mus musculus, B16-F10, 72 h, 25 µM, read-out: growth inhibition category): 50 to 75%

Structure (SMILES): O=C1C=C(OCc2cn(-c3ccc(Cl)cc3)nn2)C(=O)c2ccccc21 [Compound 3]
growth inhibition category ([2]; A549, 72 h, all concentrations tested (25 µM to 0.8 µM)): low (low when below 50%)
growth inhibition category ([6]; C6, 72 h, all concentrations tested (25 µM to 0.8 µM)): low (low when below 50%)
growth inhibition category ([11]; B16-F10, 72 h, all concentrations tested (25 µM to 0.8 µM)): low (low when below 50%)

Further lines, with some results ahead:

IC50 [2]: < 0.6 µM
IC50 ([11]; listed as Doxorrubicin): 0.6 µM
IC50 ([11]; Mus musculus, B16-F10, 72 h): < 0.6 µM
Structure (SMILES): COc1cccc2c1C(=O)c1c(O)c3c(c(O)c1C2=O)C[C@@](O)(C(=O)CO)C[C@@H]3O[C@H]1C[C@H](N)[C@H](O)[C@H](C)O1 [Doxorubicin, Doxorubicin Hydrochloride, reference compound]
wound closure (wound restored) ([3]; A549, 0.2 μM (positive control), 48 h): 78%
changes in the percentage of living, apoptotic or necrotic cells ([7]; A549, 0.2 µM): not possible to observe changes
inhibition at 0.2 µM ([10]; A549, 0.2 μM (positive control)): 96.1%

IC50 ([2]; Homo sapiens, A549, 72 h): 53 µM
IC50 ([6]; Rattus norvegicus, C6, 72 h): 22.6 µM
Structure (SMILES): O=C1C=C(O)C(=O)c2ccccc21 [Lawsone, 2-hydroxy-1,4-naphtoquinone]

— publication PMC10510246, “Inhibitory effect of O-propargyllawsone in A549 lung adenocarcinoma cells” (BMC Complementary Medicine and Therapies, 2023)
